Key:
AsPC-1 cells (KRAS G12D) = assay: 3D Cell viability assay in AsPC-1 cells (Biological Example 6); format: cell-based; details: AsPC-1 (KRAS G12D) spheroids, 72 hours
Description: (§1) Biological Example 6: 3D Cell viability assay in AsPC-1, SW1900, HPAC, Capan-2, RKN, H358, HCT116, KP-2, H1573, A549, MKN1, and HT1080 cells
(§2) The inhibition of cellular viability as a result of test compound treatment in a spheroid assay was measured using the CellTiter-Glow 3D Cell Viability Assay (Promega).
(§3) On Day 1, 1000 cells per well were seeded in 150 μL of complete growth media supplemented with 10% fetal bovine serum (FBS) and incubated at 37° C., in the presence of 5% CO2 in 96-well ultra-low attachment microplates (Corning) for 48 hours undisturbed to allow spheroids to form.
(§4) Following spheroid formation, cells were treated with compounds diluted in DMSO at 0.25% final DMSO concentration. Compounds were dosed in a 9-point concentration curve with three-fold dilution between concentrations. Cells were incubated in the presence of compound for 72 hours at 37° C., in the presence of 5% CO2.
(§5) Following this incubation period, the kit-provided CTG reagent was allowed to equilibrate for 30 minutes at room temperature, 150 μL of equilibrated CTG reagent was added to each well, and the plate was sealed before shaking at 250 rpm for 10 minutes at room temperature to lyse the cells, 150 μL of lysate per well was transferred to a 96-well plate and luminescence was read on a CLARIOstar plate reader.
(§6) Data was imported into the Prism software package (Graphpad) and EC50 values were calculated using the log (inhibitor) vs, response—variable slope (Four parameters) model.

[1] = tested on: Capan-2 cells (KRAS G12V); assay: 3D Cell viability assay in Capan-2 cells (Biological Example 6); format: cell-based; details: Capan-2 (KRAS G12V) spheroids, 72 hours
Description: as §1, §2, §3, §4, §5, §6

RKN cells (KRAS G12V) [2] = assay: 3D Cell viability assay in RKN cells (Biological Example 6); format: cell-based; details: RKN (KRAS G12V) spheroids, 72 hours
Description: as §1, §2, §3, §4, §5, §6

[3] = tested on: Capan-2 cells (KRAS G12V); assay: Cell-based pERK HTRF assay in Capan-2 cells (Biological Example 5)
Description: (§7) Biological Example 5: Cell-based PERK HTRF assay in AsPC-1, SW1900, HPAC, Capan-2, RKN, H358, HCT116, KP-2, H1573, A549, MKN1, and HT1080 cells
(§8) The inhibition of ERK phosphorylation, as measured using the HTRF Advanced Phospho-ERK 1/2 (Thr202/Tyr204) Detection Assay kit (Perkin Elmer), was used to determine the effectiveness of test compounds in disrupting KRAS-driven protein/effector signaling in cells.
(§9) On day 1, cells were seeded into 96-well plates at 2.5×10^4 cells/well in 100 μL of complete growth media supplemented with 10% fetal bovine serum (FBS) and incubated at 37° C., in the presence of 5% CO2.
(§10) On day 2, cells were treated with compounds diluted in DMSO at 0.25% final DMSO concentration. Compounds were dosed in a 9-point concentration curve with three-fold dilution between concentrations. Cells were incubated in the presence of compound for two hours at 37° C. Following this treatment period, cells were harvested by aspirating the media, adding 40 μL of kit-supplied 1x lysis buffer per well, and shaking for 30 minutes at 250 rpm at room temperature.
(§11) Following cell lysis, samples were homogenized by pipetting up and down twenty times and 16 μL of cell lysate per well was transferred from the 96-well cell culture plate to two wells of a 384-well detection plate. A complete detection buffer was prepared by diluting D2 and Eu Cryptate antibodies 1:20 in kit-provided detection solution, 4 μL of complete detection buffer was then added to each well with lysate. Plates were incubated with gentle rocking for 24 hours at 4° C.
(§12) Following this incubation period, plates were centrifuged at 500×g for one minute and analyzed on a CLARIOstar plate reader. Data was imported into Microsoft Excel and the signal from the 665 nm channel was divided by the signal from the 620 nm channel. % pERK was calculated as: […]
(§13) Data was imported to the Prism software package (Graphpad) and EC50 values were calculated using the log (inhibitor) vs, response—variable slopc (Four parameters) model.

RKN cells (KRAS G12V) [4] = assay: Cell-based pERK HTRF assay in RKN cells (Biological Example 5)
Description: as §7, §8, §9, §10, §11, §12, §13

[5] = tested on: MKN1 cells (KRAS amplification); assay: Cell-based pERK HTRF assay in MKN1 cells (Biological Example 5)
Description: as §7, §8, §9, §10, §11, §12, §13

HCT116 cells (KRAS G13D) = assay: 3D Cell viability assay in HCT116 cells (Biological Example 6); format: cell-based; details: HCT116 (KRAS G13D) spheroids, 72 hours
Description: as §1, §2, §3, §4, §5, §6

[6] = Homo sapiens, Capan-2, Capan-2 (KRAS G12V) cells
[7] = Homo sapiens, MKN-1, MKN cells (MKN1, KRAS amplification)
[8] = MKN cells (MKN1, KRAS amplification)

Structure (SMILES) | IC50 (AsPC-1 cells (KRAS G12D); Homo sapiens, ASPC1) [nM] | IC50 ([1]; Homo sapiens) [nM] | IC50 (RKN cells (KRAS G12V) [2]) [nM] | IC50 [3, 6] [nM] | IC50 (RKN cells (KRAS G12V) [4]) [nM] | IC50 [5, 7] [nM] | IC50 (HCT116 cells (KRAS G13D); Homo sapiens, HCT-116) [nM] | IC50 (AsPC-1 cells (KRAS G12D)) [nM] | IC50 [1] [nM] | IC50 ([3]; Capan-2 (KRAS G12V) cells) [nM] | IC50 [5, 8] [nM] | IC50 (HCT116 cells (KRAS G13D)) [nM]
CCN(c1nc(OC[C@@]23CCCN2C[C@H](F)C3)nc2c(F)c(-c3ccc(F)c4sc(N)c(C#N)c34)c(C(F)(F)F)cc12)[C@H]1C[C@H](C)N(C(=O)[C@@H]2CC2(F)F)C1 (atropisomer, axis not shown) [Compound 751] | ≤ 100 | ≤ 100 | ≤ 100 | ≤ 100 | ≤ 100 | ≤ 100 | 100 to 1000 | – | – | – | – | –
CCN(c1nc(OCC23CCCN2CC(F)C3)nc2c(F)c(-c3ccc(F)c4sc(N)c(C#N)c34)c(C(F)(F)F)cc12)C1CC(C)N(C(=O)C2CC2(F)F)C1 (centres unmarked) [Compound 732] | – | – | ≤ 100 | – | ≤ 100 | – | – | ≤ 100 | ≤ 100 | ≤ 100 | ≤ 100 | 100 to 1000
CCN(c1nc(OC[C@@]23CCCN2C[C@H](F)C3)nc2c(F)c(-c3ccc(F)c4sc(N)c(C#N)c34)c(C(F)(F)F)cc12)[C@@H]1CCN(C(C)=O)C1 [Compound 268] | ≤ 100 | ≤ 100 | ≤ 100 | ≤ 100 | ≤ 100 | ≤ 100 | 100 to 1000 | – | – | – | – | –
CCN(c1nc(OC[C@@]23CCCN2C[C@H](F)C3)nc2c(F)c(-c3ccc(F)c4sc(N)c(C#N)c34)c(C(F)(F)F)cc12)[C@H]1CCN(C(C)=O)C1 [Compound 262] | ≤ 100 | ≤ 100 | ≤ 100 | ≤ 100 | ≤ 100 | ≤ 100 | 100 to 1000 | – | – | – | – | –
CCN(c1nc(OC[C@@]23CCCN2C[C@H](F)C3)nc2c(F)c(-c3ccc(F)c4sc(N)c(C#N)c34)c(C(F)(F)F)cc12)[C@H]1C[C@H](COC)N(C(=O)C2CC2)C1 (atropisomer, axis not shown) [Compound 696] | ≤ 100 | ≤ 100 | ≤ 100 | ≤ 100 | ≤ 100 | ≤ 100 | 100 to 1000 | – | – | – | – | –
N#Cc1cnn2c1CN(c1nc(OC[C@@]34CCCN3C[C@H](F)C4)nc3c(F)c(-c4ccc(F)c5sc(N)c(C#N)c45)c(C(F)(F)F)cc13)CC2 [Compound 392] | ≤ 100 | 100 to 1000 | ≤ 100 | 100 to 1000 | ≤ 100 | ≤ 100 | 100 to 1000 | – | – | – | – | –
N#Cc1c(N)sc2c(F)ccc(-c3c(C(F)(F)F)cc4c(N5CC6CC(C5)O6)nc(OC[C@@]56CCCN5C[C@H](F)C6)nc4c3F)c12 (single isomer, unassigned) [Compound 275] | > 1000 | ≤ 100 | ≤ 100 | ≤ 100 | ≤ 100 | ≤ 100 | 100 to 1000 | – | – | – | – | –
CCN(c1nc(OC[C@@]23CCCN2C[C@H](F)C3)nc2c(F)c(-c3ccc(F)c4sc(N)c(C#N)c34)c(C(F)(F)F)cc12)[C@H]1CC(=O)N2CCC[C@@H]12 (atropisomer, axis not shown; (aS)) [Compound 697, 2-amino-4-((S)-4-(ethyl((1S,7aS)-3-oxohexahydro-1H-pyrrolizin-1-yl)amino)-8-fluoro-2-(((2R,7aS)-2-fluorotetrahydro-1H-pyrrolizin-7a(5H)-yl)methoxy)-6-(trifluoromethyl)quinazolin-7-yl)-7-fluorobenzo[b]thiophene-3-carbonitrile] | ≤ 100 | ≤ 100 | ≤ 100 | ≤ 100 | ≤ 100 | ≤ 100 | 100 to 1000 | – | – | – | – | –
CN(c1nc(OC[C@@]23CCCN2C[C@H](F)C3)nc2c(F)c(-c3ccc(F)c4sc(N)c(C#N)c34)c(C(F)(F)F)cc12)[C@H]1C[C@@H](O)C1 [Compound 19, 2-amino-7-fluoro-4-((S)-8-fluoro-2-(((2R,7aS)-2-fluorotetrahydro-1H-pyrrolizin-7a(5H)-yl)methoxy)-4-(((1s,3R)-3-hydroxycyclobutyl)(methyl)amino)-6-(trifluoromethyl)quinazolin-7-yl)benzo[b]thiophene-3-carbonitrile] | – | – | ≤ 100 | – | ≤ 100 | – | – | – | 100 to 1000 | ≤ 100 | ≤ 100 | ≤ 100

— patent US20260042764A1, “COMPOSITIONS AND METHODS FOR INHIBITION OF KRAS” (TheRas, Inc., priority 2022, published 2026)
